Tests used:
Experiment in all cases: relative viability (nuclei count vs DMSO), 5 days (fraction); higher = more cells survive
Imatinib + Trametinib = compound: Cc1ccc(NC(=O)c2ccc(CN3CCN(C)CC3)cc2)cc1Nc1nccc(-c2cccnc2)n1 [Imatinib] + CC(=O)Nc1cccc(-n2c(=O)n(C3CC3)c(=O)c3c(Nc4ccc(I)cc4F)n(C)c(=O)c(C)c32)c1 [Trametinib] (partner 0.02 µM)
Outline: (§1)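 One day after seeding in 1536-well plates, lung cancer cell lines were dosed by pin tool. Dosing was either single-drug or a fixed anchor-drug dose plus five library-drug doses (not always all listed) in √10 steps. After 5 days, nuclei were stained in one fix-and-stain step and counted on 4× images, and relative viability is the nuclei count of treated wells over that of vehicle wells, given as the median of duplicate plates.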

Imatinib + Foretinib = compound: Cc1ccc(NC(=O)c2ccc(CN3CCN(C)CC3)cc2)cc1Nc1nccc(-c2cccnc2)n1 [Imatinib] + COc1cc2c(Oc3ccc(NC(=O)C4(C(=O)Nc5ccc(F)cc5)CC4)cc3F)ccnc2cc1OCCCN1CCOCC1 [Foretinib] (partner 0.25 µM)
Outline: as §1

Imatinib + Palbociclib = compound: Cc1ccc(NC(=O)c2ccc(CN3CCN(C)CC3)cc2)cc1Nc1nccc(-c2cccnc2)n1 [Imatinib] + CC(=O)c1c(C)c2cnc(Nc3ccc(N4CCNCC4)cn3)nc2n(C2CCCC2)c1=O [Palbociclib] (partner 0.5 µM)
Outline: as §1

Imatinib + Bortezomib = compound: Cc1ccc(NC(=O)c2ccc(CN3CCN(C)CC3)cc2)cc1Nc1nccc(-c2cccnc2)n1 [Imatinib] + CC(C)C[C@H](NC(=O)[C@H](Cc1ccccc1)NC(=O)c1cnccn1)B(O)O [Bortezomib] (partner 0.002 µM)
Outline: as §1

| Cell Line | relative viability (Imatinib + Trametinib; first compound 0.02 µM) | relative viability (Imatinib + Trametinib; first compound 0.06325 µM) | relative viability (Imatinib + Trametinib; first compound 0.2 µM) | relative viability (Imatinib + Trametinib; first compound 0.6325 µM) | relative viability (Imatinib + Trametinib; first compound 2 µM) | relative viability (Imatinib + Foretinib; first compound 0.02 µM) | relative viability (Imatinib + Foretinib; first compound 0.06325 µM) | relative viability (Imatinib + Foretinib; first compound 0.2 µM) | relative viability (Imatinib + Foretinib; first compound 0.6325 µM) | relative viability (Imatinib + Foretinib; first compound 2 µM) | relative viability (Imatinib + Palbociclib; first compound 0.02 µM) | relative viability (Imatinib + Palbociclib; first compound 0.06325 µM) | relative viability (Imatinib + Palbociclib; first compound 0.2 µM) | relative viability (Imatinib + Palbociclib; first compound 0.6325 µM) | relative viability (Imatinib + Palbociclib; first compound 2 µM) | relative viability (Imatinib + Bortezomib; first compound 0.02 µM) | relative viability (Imatinib + Bortezomib; first compound 0.06325 µM) | relative viability (Imatinib + Bortezomib; first compound 0.2 µM) | relative viability (Imatinib + Bortezomib; first compound 0.6325 µM) | relative viability (Imatinib + Bortezomib; first compound 2 µM) |
| --- | --- | --- | --- | --- | --- | --- | --- | --- | --- | --- | --- | --- | --- | --- | --- | --- | --- | --- | --- | --- |
| SW 1573 | 0.614 | 0.565 | 0.619 | 0.618 | 0.631 | 1.04 | 0.469 | 1.03 | 0.893 | 0.908 | 0.404 | 0.435 | 0.41 | 0.265 | 0.405 | 1.05 | 1.43 | 1.2 | 1.03 | 1.12 |
| NCI-H1355 | 0.494 | – | 0.436 | – | 0.411 | 1.05 | – | 1.07 | 0.964 | 0.983 | 0.433 | – | 0.426 | 0.398 | 0.39 | 1.26 | – | 1.31 | 1.13 | 1.18 |
| NCI-H1703 | – | – | – | – | – | 0.329 | 0.397 | 0.372 | 0.402 | 0.347 | – | – | – | – | – | 0.289 | 0.29 | 0.138 | 0.214 | 0.186 |
| NCI-H358 | 0.14 | 0.143 | 0.129 | 0.139 | 0.121 | 0.685 | 0.519 | 0.726 | 0.619 | 0.648 | 0.159 | 0.138 | 0.153 | 0.142 | 0.146 | – | – | – | – | – |
| Calu-6 | – | – | – | – | – | 1.08 | 1.01 | 1.01 | 0.925 | 0.891 | – | – | – | – | – | 1.13 | 1.06 | 1.01 | 1.08 | 0.867 |
| NCI-H1299 | – | – | – | – | – | 1.11 | 1.18 | 1.16 | 1.09 | – | – | – | – | – | – | 1.05 | 1.01 | 0.98 | 1.03 | 1.03 |
| LK-2 | 0.783 | 0.61 | 0.919 | – | 0.87 | 1.18 | 0.908 | 1.65 | 0.83 | 1.32 | 0.757 | 0.726 | – | – | 0.662 | – | – | – | – | – |
| EBC-1 | – | – | – | – | – | 0.114 | 0.108 | 0.109 | 0.0904 | 0.0924 | – | – | – | – | – | 0.556 | 0.623 | 0.52 | 0.58 | 0.423 |
| NCI-H1563 | – | – | – | – | – | 0.924 | – | 0.902 | 0.845 | 0.925 | – | – | – | – | – | 0.885 | 0.789 | 0.889 | 0.809 | 0.86 |
| NCI-H2170 | 1 | 1.06 | 1.02 | 0.972 | 0.965 | 1.01 | 1.03 | 0.996 | 1.02 | 1 | 0.399 | 0.438 | 0.431 | 0.408 | 0.382 | – | – | – | – | – |
| HCC-44 | 1.1 | – | 1.24 | 0.94 | 1.11 | – | – | – | – | – | 0.976 | – | 1.1 | – | 0.885 | 1.04 | 0.945 | 0.979 | 0.896 | 0.813 |
| ABC-1 | – | – | – | – | – | 0.739 | – | 0.904 | 1.13 | 0.922 | 0.749 | – | 0.741 | 0.872 | 0.664 | 0.311 | – | 0.282 | 0.235 | 0.348 |
